Measured values as given in patent US8809369B2, “Tetrahydroquinoline derivatives” (Hoffmann-La Roche Inc., priority 2011, dated 2014).

System: AMP-activated protein kinase (AMPK)
Assay: p-AMPK expression level in L6 cell line by Western blot
Assay type: cell-based
Conditions: L6 cells, 2 hours compound treatment
Procedure: Evaluation of p-AMPK and p-ACC expression level in L6 cell line by Western-Blot
This method evaluates the changes of AMP-activated protein kinase (AMPK) and ACC (acetyl-CoA carboxylase) activity by small molecular modulators through detecting the level of p-AMPK and p-ACC proteins in L6 cells using Western blot.
L6 cells are maintained in DMEM medium supplemented with 10% FBS in 10-cm dishes. Prior to compounds treatment, L6 cells are seeded in 12-well-plates at concentration of 3×10^4 cells per well. After 24 hours of incubation in 12-well plates, L6 cells are differentiated by replacing the 10% FBS-DMEM medium with 2% FBS-DMEM. Differentiation usually takes 5 days, during which the culture medium is changed every 2 days.
The compound concentrations typically range from 32 μM to 0.5 μM with 2-fold dilution in 2 ml DMEM and 7 doses. The final DMSO concentration is 0.4%. Berberine is used as a positive control at concentration of 16 μM. Before compound treatment, starve L6 cells for 2 hours by replacing the medium with DMEM, and then gently aspirate the media from each well. Add the compounds into the plates and incubate at 37 degree 5% CO2 for 2 hours.
Prepare lysis buffer (RIPA buffer with protease-inhibitors and phosphorate-inhibitors) and place it on ice. After two hour's compound treatment, aspirate the medium from 12-well plates, add 70 ul lysis buffer to each well and keep the plates on ice for 5 min. Then scrape the cell lysate off the plates and transfer it to 1.5 ml eppendorf tubes. Keep the tube on ice for more 10 min, centrifugate the lysate at 13000 rpm, 4 degrees for 15 min and transfer the supernatant to clean tubes.
Determine protein concentration for each sample using Quickstart Bradford protein quantitation kit. Mix 20 ug protein sample with 4 times loading buffer, heat them at 100° C. for 5 min, store the sample in −80° C. or perform Western blot assay directly. For Western blot assay, load 20 ug samples and 10 ul Pre-stained Protein Maker into 4-12% SDS-PAGE gradient gel. Run the samples at 100 V in the stacking gel and at 120 V in resolving gel until the Bromophenol dye reaches the bottom. Transfer the electrophoresed proteins to a PVDF membrane using Bio-Rad's Transblot for 120 min at 300 mA. Following the completion of transfer, the membrane is blocked with 5% non-fat milk for 2 hours at room temperature before incubated with primary antibody (p-AMPK and p-ACC) at 4° C. overnight. On the next day wash the membrane twice with TBST, add secondary antibody and incubate for 1 hour at room temperature. Wash the membrane twice with TBST. Develop p-AMPK and p-ACC protein expression level on the film in dark room with Amersham ECL plus kit. The bands of each sample are quantitated by Bio-Rad system, The AC1.3 value is analyzed using Prism 5.0.

SMILES | Activity AC1.3 (AMPKp) [µM]
CS(=O)(=O)NC(=O)c1ccc2c(c1)C1(CCCC1)CC(c1cccc(N3CCOCC3)c1)N2 (stereo not shown) [Example 5, N-(methylsulfonyl)-2′-(3-morpholinophenyl)-2′,3′-dihydro-1′H-spiro[cyclopentane-1,4′-quinoline]-6′-carboxamide] | 9
CC1(C)CC(c2cc(N3CCOCC3)ccc2Cl)Nc2ccc(C(=O)NS(=O)(=O)C3CC3)cc21 (stereo not shown) [Example 25, Cyclopropanesulfonic acid [2-(2-chloro-5-morpholin-4-yl-phenyl)-4,4-dimethyl-1,2,3,4-tetrahydro-quinoline-6-carbonyl]-amide] | 0.21
Cc1ccc(N2CCOC2=O)cc1C1CC(C)(C)c2cc(C(=O)NS(C)(=O)=O)ccc2N1 (stereo not shown) [Example 27, N-{4,4-dimethyl-2-[2-methyl-5-(2-oxo-oxazolidin-3-yl)-phenyl]-1,2,3,4-tetrahydro-quinoline-6-carbonyl}-methanesulfonamide] | 0.01
Cc1ccc(N2CCOC2=O)cc1C1CC(C)(C)c2cc(C(=O)NS(=O)(=O)C3CC3)ccc2N1 (stereo not shown) [Example 28, Cyclopropanesulfonic acid {4,4-dimethyl-2-[2-methyl-5-(2-oxo-oxazolidin-3-yl)-phenyl]-1,2,3,4-tetrahydro-quinoline-6-carbonyl}-amide] | 0.02
CC1(C)CC(c2cccc(C(N)=O)c2)Nc2ccc(C(=O)NS(C)(=O)=O)cc21 (stereo not shown) [Example 32, 3-(6-Methanesulfonylaminocarbonyl-4,4-dimethyl-1,2,3,4-tetrahydroquinolin-2-yl)-benzamide] | 0.002
CC1(C)CC(c2cccc(C#N)c2)Nc2ccc(C(=O)NS(C)(=O)=O)cc21 (stereo not shown) [Example 33, N-[2-(3-cyano-phenyl)-4,4-dimethyl-1,2,3,4-tetrahydro-quinoline-6-carbonyl]-methanesulfonamide] | 0.08
CC1(C)CC(c2cccc(C(N)=O)c2)Nc2ccc(C(=O)NS(=O)(=O)C3CC3)cc21 (stereo not shown) [Example 34, 3-(6-Cyclopropanesulfonylaminocarbonyl-4,4-dimethyl-1,2,3,4-tetrahydro-quinolin-2-yl)-benzamide] | 0.08
CC1(C)CC(c2cccc(C#N)c2)Nc2ccc(C(=O)NS(=O)(=O)C3CC3)cc21 (stereo not shown) [Example 35, Cyclopropanesulfonic acid [2-(3-cyano-phenyl)-4,4-dimethyl-1,2,3,4-tetrahydro-quinoline-6-carbonyl]-amide] | 0.24
Cc1ccc(N2CCN(c3cncc(C4CC(C)(C)c5cc(C(=O)NS(=O)(=O)C6CC6)ccc5N4)c3)CC2)c(C)c1 (stereo not shown) [Example 50, Cyclopropanesulfonic acid (2-{5-[4-(2,4-dimethyl-phenyl)-piperazin-1-yl]-pyridin-3-yl}-4,4-dimethyl-1,2,3,4-tetrahydro-quinoline-6-carbonyl)-amide] | 0.16
CN1CCN(c2cccc(C3CC(C)(C)c4cc(C(=O)NS(=O)(=O)C5CC5)ccc4N3)c2)CC1 (stereo not shown) [Example 51, Cyclopropanesulfonic acid {4,4-dimethyl-2-[3-(4-methyl-piperazin-1-yl)-phenyl]-1,2,3,4-tetrahydro-quinoline-6-carbonyl}-amide] | 0.18
CC1(C)CC(c2cccc(N3CCCC3)c2)Nc2ccc(C(=O)NS(=O)(=O)C3CC3)cc21 (stereo not shown) [Example 52, Cyclopropanesulfonic acid [4,4-dimethyl-2-(3-pyrrolidin-1-yl-phenyl)-1,2,3,4-tetrahydro-quinoline-6-carbonyl]-amide] | 0.55
CC1(C)CC(c2cncc(N3CCOCC3)c2)Nc2ccc(C(=O)NS(=O)(=O)C3CC3)cc21 (stereo not shown) [Example 54, Cyclopropanesulfonic acid [4,4-dimethyl-2-(5-morpholin-4-yl-pyridin-3-yl)-1,2,3,4-tetrahydro-quinoline-6-carbonyl]-amide] | 0.03
CC1(C)CC(c2cccc(N3CCOCC3)c2)Nc2c(C(=O)NS(C)(=O)=O)cc(F)cc21 (stereo not shown) [Example 56, N-[6-fluoro-4,4-dimethyl-2-(3-morpholin-4-yl-phenyl)-1,2,3,4-tetrahydro-quinoline-8-carbonyl]-methanesulfonamide] | 0.03
CN(C)c1cccc(C2CC(C)(C)c3cc(Cl)cc(C(=O)NS(=O)(=O)C4CC4)c3N2)c1 (stereo not shown) [Example 61, Cyclopropanesulfonic acid [6-chloro-2-(3-dimethylamino-phenyl)-4,4-dimethyl-1,2,3,4-tetrahydro-quinoline-8-carbonyl]-amide] | 0.1
CC1(C)CC(c2cccc(N3CCOC3=O)c2)Nc2c(C(=O)NS(C)(=O)=O)cc(Cl)cc21 (stereo not shown) [Example 64, N-{6-chloro-4,4-dimethyl-2-[3-(2-oxo-oxazolidin-3-yl)-phenyl]-1,2,3,4-tetrahydro-quinoline-8-carbonyl}-methanesulfonamide] | 0.1
Cc1cc(C(=O)NS(=O)(=O)C2CC2)cc2c1NC(c1cccc(N3CCOCC3)c1)CC2(C)C (stereo not shown) [Example 66, Cyclopropanesulfonic acid [4,4,8-trimethyl-2-(3-morpholin-4-yl-phenyl)-1,2,3,4-tetrahydro-quinoline-6-carbonyl]-amide] | 12.8
CN1CCN(c2cccc(C3CC(C)(C)c4cccc(C(=O)NS(C)(=O)=O)c4N3)c2)CC1 (stereo not shown) [Example 67, N-{4,4-dimethyl-2-[3-(4-methyl-piperazin-1-yl)-phenyl]-1,2,3,4-tetrahydro-quinoline-8-carbonyl}-methanesulfonamide] | 0.02
Cc1ccc(N2CCN(c3cccc(C4CC(C)(C)c5cc(F)cc(C(=O)NS(C)(=O)=O)c5N4)c3)CC2)cc1 (stereo not shown) [Example 68, N-{6-fluoro-4,4-dimethyl-2-[3-(4-p-tolyl-piperazin-1-yl)-phenyl]-1,2,3,4-tetrahydro-quinoline-8-carbonyl}-methanesulfonamide] | 0.003
CC1(C)CC(c2cccc(N3CCCC3)c2)Nc2c(C(=O)NS(C)(=O)=O)cc(Cl)cc21 (stereo not shown) [Example 71, N-[6-chloro-4,4-dimethyl-2-(3-pyrrolidin-1-yl-phenyl)-1,2,3,4-tetrahydro-quinoline-8-carbonyl]-methanesulfonamide] | 0.08
CC1(C)CC(c2ccc(F)c(Cl)c2)Nc2ccc(C(=O)NS(=O)(=O)C3CC3)nc21 (stereo not shown) [Example 78, Cyclopropanesulfonic acid [6-(3-chloro-4-fluoro-phenyl)-8,8-dimethyl-5,6,7,8-tetrahydro-[1,5]naphthyridine-2-carbonyl]-amide] | 28.9
CC1(C)CC(c2cccc(N3CCOCC3)c2)Nc2ccc(C(=O)NS(=O)(=O)C3CC3)nc21 (stereo not shown) [Example 79, Cyclopropanesulfonic acid [8,8-dimethyl-6-(3-morpholin-4-yl-phenyl)-5,6,7,8-tetrahydro-[1,5]naphthyridine-2-carbonyl]-amide] | 4.46
CC1(C)CC(c2ccc(F)c(Cl)c2)Nc2ccc(C(=O)NS(C)(=O)=O)nc21 (stereo not shown) [Example 81, N-[6-(3-chloro-4-fluoro-phenyl)-8,8-dimethyl-5,6,7,8-tetrahydro-[1,5]naphthyridine-2-carbonyl]-methanesulfonamide] | 0.43
CC(C)(Nc1cccc(C2CC(C)(C)c3cc(S(=O)(=O)N4CCOCC4)ccc3N2)c1)C(=O)O (stereo not shown) [Example 82, 2-{3-[4,4-Dimethyl-6-(morpholine-4-sulfonyl)-1,2,3,4-tetrahydro-quinolin-2-yl]-phenylamino}-2-methyl-propionic acid] | 0.02
CC1(C)CC(c2cccc(NC3(C(=O)O)CC3)c2)Nc2ccc(S(=O)(=O)N3CCOCC3)cc21 (stereo not shown) [Example 83, 1-{3-[4,4-Dimethyl-6-(morpholine-4-sulfonyl)-1,2,3,4-tetrahydro-quinolin-2-yl]-phenylamino}-cyclopropanecarboxylic acid] | 0.01
CC1(C)CC(c2cccc(NC3(C(=O)O)CC3)c2)Nc2ccc(S(=O)(=O)NC3CCC3)cc21 (stereo not shown) [Example 84, 1-[3-(6-Cyclobutylsulfamoyl-4,4-dimethyl-1,2,3,4-tetrahydro-quinolin-2-yl)-phenylamino]-cyclopropanecarboxylic acid] | 0.2
